# Data published in ChEMBL document CHEMBL2384963, “Diterpenoids from the twigs and leaves of Fokienia hodginsii” (J Nat Prod, 2013).
# Experiments:
# Assay type in all cases: functional, cell-based
# [1] = tested on: SW480; assay: Cytotoxicity against human SW480 cells after 48 hrs by MTT assay; conditions: SW480, 48 h
# [2] = tested on: A549; assay: Cytotoxicity against human A549 cells after 48 hrs by MTT assay; conditions: A549, 48 h
# [3] = tested on: MCF7; assay: Cytotoxicity against human MCF7 cells after 48 hrs by MTT assay; conditions: MCF7, 48 h
# [4] = tested on: SMMC-7721; assay: Cytotoxicity against human SMMC7721 cells after 48 hrs by MTT assay; conditions: SMMC-7721, 48 h
# [5] = tested on: HL-60; assay: Cytotoxicity against human HL60 cells after 48 hrs by MTT assay; conditions: HL-60, 48 h
Compound,IC50 [1] [µM],IC50 [2] [µM],IC50 [3] [µM],IC50 [4] [µM],IC50 [5] [µM]
C=C/C(C)=C/C[C@H]1C(=C)CC[C@@H]2[C@]1(C)CCC[C@]2(C)C(=O)O,> 40,> 40,> 40,> 40,> 40
CC(C)c1cc2c(cc1O)[C@@]1(C)CCCC(C)(C)[C@@H]1CC2 [FERRUGINOL],> 40,> 40,> 40,> 40,> 40
C=C[C@]1(C)C=C2CC[C@H]3[C@](C)(CO)CCC[C@]3(C)[C@H]2[C@H](O)C1,> 40,> 40,> 40,> 40,> 40
C=CC(=C)CC[C@@H]1[C@@]2(C)CCC[C@](C)(COC(=O)/C=C\c3ccc(O)c(OC)c3)[C@@H]2CC[C@@]1(C)O,17.6,17.3,15.4,7.5,9.1
C=CC(=C)CC[C@@H]1[C@@]2(C)CCC[C@](C)(COC(=O)/C=C/c3ccc(O)cc3)[C@@H]2CC[C@@]1(C)O,19.3,20.4,16.6,15.5,11.8
C=C[C@]1(C)C=C2CC[C@H]3[C@](C)(CO)[C@@H](O)CC[C@]3(C)[C@H]2CC1 [SANDARACOPIMARADIENEDIOL],> 40,> 40,> 40,> 40,> 40
C=C1CC[C@@H]2[C@](C)(CCC[C@]2(C)C(=O)O)[C@H]1CC/C(C)=C/CO [ISOCUPRESSIC ACID],> 40,> 40,> 40,> 40,> 40
C=CC(=C)CC[C@@H]1[C@@]2(C)CCC[C@](C)(COC(=O)/C=C\c3ccc(O)cc3)[C@@H]2CC[C@@]1(C)O,13.6,17.1,15.1,16.2,14.1
C=C[C@]1(C)C=C2CC[C@@H]3[C@](C)(CCC[C@@]3(C)C(=O)O)[C@H]2CC1 [SANDARACOPIMARIC ACID],> 40,> 40,> 40,> 40,> 40
C=C[C@]1(C)C=C2CC[C@H]3C(C)(C)CCC[C@]3(C)[C@H]2[C@H](O)C1,> 40,> 40,> 40,> 40,> 40
CC(C)c1cc2c(cc1O)[C@@]1(C=O)CCCC(C)(C)[C@@H]1CC2 [PISIFERAL],14.4,21,15.6,19.7,14.3
C=C1CC[C@@H]2[C@](C)(CCC[C@@]2(C)C(=O)O)[C@H]1CC/C(C)=C/COC(C)=O,> 40,> 40,> 40,> 40,> 40
C=C1CC[C@@H]2[C@](C)(CCC[C@]2(C)C(=O)O)[C@H]1CCC1=CCOC1=O [PINUSOLIDIC ACID],> 40,> 40,> 40,> 40,> 40
C=C[C@]1(C)C=C2CC[C@H]3C(C)(C)[C@@H](O)CC[C@]3(C)[C@H]2[C@H](OC(C)=O)C1,> 40,> 40,> 40,> 40,> 40
